Reference: patent EP2951180B1, “2,6,7,8 SUBSTITUTED PURINES AS HDM2 INHIBITORS” (Merck Sharp & Dohme Corp., priority 2013, dated 2014)

These compounds were tested against T1, HDM2 (Homo sapiens, UniProt Q00987) (assay: HDM2 FRET assay (inhibition of binding of FITC labeled p53-pocket peptide to HDM2)). Details: 0.5 nM HDM2 (residues 17 to 125), 3nM peptide, two hour incubation at room temperature; read-out: FRET IC50.
T1 construct: Thioredoxin (N); made in house; host or cells: E. coli strain BL21(DE3)Rosetta
T1 sequence (Q00987 17-125): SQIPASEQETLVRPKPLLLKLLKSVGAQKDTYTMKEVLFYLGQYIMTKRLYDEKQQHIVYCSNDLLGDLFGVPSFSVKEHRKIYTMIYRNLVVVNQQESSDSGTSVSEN
Outline: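 TR-FRET with 0.5 nM His-tagged recombinant HDM2, 3 nM FITC-labelled p53 peptide and 0.25 nM Tb-anti-His antibody in PBS, 0.01% BSA, 0.01% Tween-20, 0.1% DMSO. IC50 from em520/em495 ratio over 10-point dilutions, 4-parameter logistic fit.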
Compound `C[C@@H]1COC[C@@H](C)N1c1nc2nc(-c3n[nH]c(=O)o3)nc(-c3cccc(Cl)c3)c2n1C[C@H]1CC[C@H](C)CC1` [Example 16.147, 5-{6-(3-chlorophenyl)-8-[(3R,5R)-3,5-dimethylmorpholin-4-yl]-7-[(trans-4-methylcyclohexyl)methyl]-7H-purin-2-yl}-1,3,4-oxadiazol-2(3H)-one] has an IC50 of 5.52 nM.
`C[C@H]1CC[C@H](Cn2c(N3CCOCC34CC4)nc3nc(-c4n[nH]c(=O)o4)nc(-c4cccc(Cl)c4)c32)CC1` [Example 16.88, 5-[6-(3-chlorophenyl)-7-[(trans-4-methylcyclohexyl)methyl]-8-(7-oxa-4-azaspiro[2.5]oct-4-yl)-7H-purin-2-yl]-1,3,4-oxadiazol-2(3H)-one] showed an IC50 of 39.1 nM.
`C[C@H]1CC[C@H](Cn2c(N3CCC4OCCC43)nc3nc(-c4noc(=O)[nH]4)nc(-c4cccc(Cl)c4)c32)CC1` (relative stereo) [Example 16.150, 3-{6-(3-chlorophenyl)-8-(hexahydro-4H-furo[3,2-b]pyrrol-4-yl)-7-[(trans-4-methylcyclohexyl)methyl]-7H-purin-2-yl}-1,2,4-oxadiazol-5(4H)-one] was tested, and the IC50 was 45 nM.
`CC(C)(CO)Nc1nc2nc(-c3noc(=O)[nH]3)nc(-c3cccc(Cl)c3)c2n1C[C@H]1CC[C@H](C)CC1` [Example 16.41, 3-{6-(3-chlorophenyl)-8-[(2-hydroxy-1,1-dimethylethyl)amino] -7-[(trans-4-methylcyclohexyl)methyl]-7H-purin-2-yl}-1,2,4-oxadiazol-5(4H)-one] showed an IC50 of 17.8 nM.
`CC(C)c1cc(F)nc(-c2nc3nc(-c4noc(=O)[nH]4)nc(N[C@H](C)C4CCC4)c3n2C[C@H]2CC[C@H](C)CC2)c1` [Example 15.5, 3-(6-(((R)-1-cyclobutylethyl)amino)-8-(6-fluoro-4-isopropylpyridin-2-yl)-7-((trans-4-methylcyclohexyl)methyl)-7H-purin-2-yl)-1,2,4-oxadiazol-5(2H)-one] gave an IC50 of 33.5 nM.
For `C[C@H]1CC[C@H](Cn2c(N[C@@H](CO)c3ccccc3)nc3nc(-c4noc(=O)[nH]4)nc(-c4cccc(Cl)c4)c32)CC1` [Example 16.38, 3-{6-(3-chlorophenyl)-8-{[(1R)-2-hydroxy-1-phenylethyl]amino}-7-[(trans-4-methylcyclohexyl)methyl]-7H-purin-2-yl}-1,2,4-oxadiazol-5(4H)-one], the IC50 was 1.95 nM.
`CC(C)c1ccnc(-c2nc3nc(-c4noc(=O)[nH]4)nc(N[C@H](C)C4CCC4)c3n2C[C@H]2CC[C@H](C)CC2)c1F` [Example 15.7, 3-(6-((R)-1-cyclobutylethylamino)-8-(3-fluoro-4-isopropylpyridin-2-yl)-7-((trans-4-methylcyclohexyl)methyl)-7H-purin-2-yl)-1,2,4-oxadiazol-5(4H)-one] was tested, and the IC50 was 5.13 nM.

Same assay, conditions: Table 6; read-out: FRET IC50
With `Cc1cccc(-c2nc3nc(C(=O)O)nc(N4CCC4C4CCC4)c3n2Cc2ccc(C(F)(F)F)cc2)c1` (stereo not drawn) [Example 6.93, 6-(2-cyclobutylazetidin-1-yl)-8-(3-methylphenyl)-7-[4-(trifluoromethyl)benzyl]-7H-purine-2-carboxylic acid] the IC50 was 806 nM.
`CCC(C)CNc1nc(C(=O)O)nc2nc(-c3cccc(C)c3)n(Cc3ccc(C(F)(F)F)cc3)c12` (stereo not drawn) [Example 6.63, 6-[(2-methylbutyl)amino]-8-(3-methylphenyl)-7-[4-(trifluoromethyl)benzyl]-7H-purine-2-carboxylic acid] gave an IC50 of 719 nM.
With `Cc1cccc(-c2nc3nc(C(=O)O)nc(NCC4CCC4)c3n2Cc2ccc(C(F)(F)F)cc2)c1` [Example 6.75, 6-[(cyclobutylmethyl)amino]-8-(3-methylphenyl)-7-[4-(trifluoromethyl)benzyl]-7H-purine-2-carboxylic acid] the IC50 was 167 nM.

Same assay, conditions: Table 9; read-out: FRET IC50
With `C[C@@H](Nc1nc(C(=O)O)nc2nc(N3CCCCC3c3ccc(F)cc3)n(Cc3ccc(C(F)(F)F)cc3)c12)C1CCC1` (stereo partly drawn) [Example 9.117, 6-{[(1R)-1-cyclobutylethyl]amino}-8-[2-(4-fluorophenyl)piperidin-1-yl]-7-[4-(trifluoromethyl)benzyl]-7H-purine-2-carboxylic acid] the IC50 was 10.6 nM.
With `C[C@@H](Nc1nc(C(=O)O)nc2nc(N3CCOC(C)(C)C3)n(Cc3ccc(C(F)(F)F)cc3)c12)C1CCC1` [Example 9.18, 6-{[(1R)-1-cyclobutylethyl]amino}-8-(2,2-dimethylmorpholin-4-yl)-7-[4-(trifluoromethyl)benzyl]-7H-purine-2-carboxylic acid] the IC50 was 32.7 nM.
`CC1CCCCN1c1nc2nc(-c3noc(=O)[nH]3)nc(N[C@H](C)C3CCC3)c2n1Cc1ccc(C(F)(F)F)cc1` (stereo partly drawn) [Example 9.110, 3-(6-{[(1R)-1-cyclobutylethyl]amino}-8-(2-methylpiperidin-1-yl)-7-[4-(trifluoromethyl)benzyl]-7H-purin-2-yl)-1,2,4-oxadiazol-5(4H)-one] gave an IC50 of 10.3 nM.
`C[C@@H](Nc1nc(C(=O)O)nc2nc(N3CCCCC3c3cccc(F)c3)n(Cc3ccc(C(F)(F)F)cc3)c12)C1CCC1` (stereo partly drawn) [Example 9.116, 6-{[(1R)-1-cyclobutylethyl]amino}-8-[2-(3-fluorophenyl)piperidin-1-yl]-7-[4-(trifluoromethyl)benzyl]-7H-purine-2-carboxylic acid] showed an IC50 of 14 nM.
With `CCCN(c1nc2nc(-c3noc(=O)[nH]3)nc(N[C@H](C)C3CCC3)c2n1Cc1ccc(C(F)(F)F)cc1)C1CCCCC1` [Example 9.96, 3-(6-{[(1R)-1-cyclobutylethyl]amino}-8-[cyclohexyl(propyl)amino]-7-[4-(trifluoromethyl)benzyl]-7H-purin-2-yl)-1,2,4-oxadiazol-5(4H)-one] the IC50 was 16.2 nM.
Compound `C#CCC1CN(c2nc3nc(C(=O)O)nc(N[C@H](C)C4CCC4)c3n2Cc2ccc(C(F)(F)F)cc2)CCO1` (stereo partly drawn) [Example 9.26, 6-{[(1R)-1-cyclobutylethyl]amino}-8-(2-prop-2-yn-1-ylmorpholin-4-yl)-7-[4-(trifluoromethyl)benzyl]-7H-purine-2-carboxylic acid] has an IC50 of 34.2 nM.
`CC(C)CC1CCN(c2nc3nc(-c4noc(=O)[nH]4)nc(N[C@H](C)C4CCC4)c3n2Cc2ccc(C(F)(F)F)cc2)C1` (stereo partly drawn) [Example 9.92, 3-(6-{[(1R)-1-cyclobutylethyl]amino}-8-[3-(2-methylpropyl)pyrrolidin-1-yl]-7-[4-(trifluoromethyl)benzyl]-7H-purin-2-yl)-1,2,4-oxadiazol-5(4H)-one] gave an IC50 of 478 nM.

Same assay, conditions: Table 10; read-out: FRET IC50
In the case of `C[C@@H](Nc1nc(C(=O)O)nc2nc(C(=O)NCc3ccccc3)n(Cc3ccc(C(F)(F)F)cc3)c12)C1CCC1` [Example 10.18, (R)-8-(Benzylcarbamoyl)-6-((1-cyclobutylethyl)amino)-7-(4-(trifluoromethyl)benzyl)-7H-purine-2-carboxylic acid], the IC50 is reported as 58.9 nM.

Same assay, conditions: Table 11; read-out: FRET IC50
In the case of `C[C@@H](Nc1nc(-c2noc(=O)[nH]2)nc2nc(N(C)Cc3noc(C4CC4)n3)n(C[C@H]3CC[C@H](C)CC3)c12)C1CCC1` [Example 11.75, 3-(6-{[(1R)-1-cyclobutylethyl]amino}-8-{[(5-cyclopropyl-1,2,4-oxadiazol-3-yl)methyl](methyl)amino}-7-[(trans-4-methylcyclohexyl)methyl]-7H-purin-2-yl)-1,2,4-oxadiazol-5(2H)-one], the IC50 is reported as 9.58 nM.
Work on `C[C@@H](Nc1nc(C(=O)O)nc2nc(N3CCCCC3Cc3ccc(F)cc3)n(C[C@H]3CC[C@H](C)CC3)c12)C1CCC1` (stereo partly drawn) [Example 11.56, 6-{[(1R)-1-cyclobutylethyl]amino}-8-[2-(4-fluorobenzyl)piperidin-1-yl]-7-[(trans-4-methylcyclohexyl)methyl]-7H-purine-2-carboxylic acid] yielded an IC50 of 11.6 nM.
`C[C@@H](Nc1nc(-c2noc(=O)[nH]2)nc2nc(N3CCCCC3c3cccnc3)n(C[C@H]3CC[C@H](C)CC3)c12)C1CCC1` (single isomer, unassigned) [Example 11.50] gave an IC50 of 14.3 nM.

Same assay, conditions: Table 18; read-out: FRET IC50
In the case of `CCC1=CCC(Cn2c(-c3cc(C(C)C)ccn3)nc3nc(C(=O)O)nc(N[C@H](C)C4CCC4)c32)CC1` (stereo partly drawn) [Example 18.6, 6-(((R)-1-cyclobutylethyl)amino)-7-((4-ethylcyclohex-3-en-1-yl)methyl)-8-(4-isopropylpyridin-2-yl)-7H-purine-2-carboxylic acid], the IC50 is reported as 15.9 nM.

Same assay, conditions: Table 21; read-out: FRET IC50
`C[C@@H](Nc1nc(-c2noc(=O)[nH]2)nc2nc(C3CCCC3)n(C[C@H]3CC[C@H](C)CC3)c12)C1CCC1` [Example 21.34, 3-(6-{[(1R)-1-cyclobutylethyl]amino}-8-cyclopentyl-7-[(trans-4-methylcyclohexyl)methyl]-7H-purin-2-yl)-1,2,4-oxadiazol-5(4H)-one] gave an IC50 of 7.76 nM.
`C[C@@H](Nc1nc(C(=O)O)nc2nc(C3CCCCC3c3ccccc3)n(Cc3ccc(C(F)(F)F)cc3)c12)C1CCC1` (single isomer, unassigned) [Example 21.1] showed an IC50 of 10.2 nM.

Same assay, conditions: Table 22; read-out: FRET IC50
With `C[C@@H](Nc1nc(-c2noc(=O)[nH]2)nc2nc(C(C)(C)O)n(C[C@H]3CC[C@H](C)CC3)c12)C1CCC1` [Example 22.44, 3-(6-{[(1R)-1-cyclobutylethyl]amino}-8-(1-hydroxy-1-methylethyl)-7-[(trans-4-methylcyclohexyl)methyl] -7H-purin-2-yl)-1,2,4-oxadiazol-5(4H)-one] the IC50 was 20.5 nM.
With `C[C@@H](Nc1nc(-c2noc(=O)[nH]2)nc2nc(C3(c4ccccc4)CCO3)n(C[C@H]3CC[C@H](C)CC3)c12)C1CCC1` (stereo partly drawn) [Example 22.81, 3-[6-{[(1R)-1-cyclobutylethyl]amino}-7-[(trans-4-methylcyclohexyl)methyl]-8-(2-phenyloxetan-2-yl)-7H-purin-2-yl]-1,2,4-oxadiazol-5(4H)-one] the IC50 was 11 nM.
For `C[C@@H](Nc1nc(-c2noc(=O)[nH]2)nc2nc(C3(c4cnn(C)c4)CC3)n(C[C@H]3CC[C@H](C)CC3)c12)C1CCC1` [Example 22.63, 3-(6-{[(1R)-1-cyclobutylethyl]amino}-7-[(trans-4-methylcyclohexyl)methyl] -8-[1-(1-methyl-1H-pyrazol-4-yl)cyclopropyl]-7H-purin-2-yl)-1,2,4-oxadiazol-5(2H)-one], the IC50 was 7.93 nM.
